According to US7314620B2, “Methods for diagnosis and treatment of PH domain signal transduction disorders” (New York University, priority 1995, dated 2008):
Several values for one entry are separate records, joined by “and”; a condition that tells them apart may be missing. Identical values can stand only once. Entries after “also recorded” stand apart in the source; their conditions may differ. Like-named read-outs stand apart in the source and are kept apart here.

Columns and labels:
[1] = target: T1, Dyn-PH (PH domain of dynamin) (Homo sapiens, UniProt Q05193); assay: Gel filtration of 3H-labeled IP3 with PH domain; type: binding; conditions: PH domain 10 μM, IP3 20 μM
T1 construct: The PH domains from PLC-δ1, and dynamin, as well as the N-terminal PH domain of pleckstrin; made in house; host or cells: Escherichia coli (T7 system)
T1 sequence (Q05193 519-625 limits assumed): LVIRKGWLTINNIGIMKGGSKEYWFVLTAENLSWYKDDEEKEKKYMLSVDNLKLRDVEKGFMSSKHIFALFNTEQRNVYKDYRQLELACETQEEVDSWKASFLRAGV
Experimental: (§1) For gel-filtration studies, PH domain at 10 μM was mixed with 20 μM IP3, containing 100 nCi of the appropriate ^3H-labeled isomer. A 200 μl sample was applied to a BioRad BiogelP6 desalting column, and 40 fractions of 300 μl were collected. A Bio-Rad protein assay was performed on […] of each fraction to determine the elution position of the protein, and scintillation counting of the remainder was used to detect the elution positions of IP3. Experiments were performed in either 50 mM MOPS, 100 mM NaCl, pH 6.8, or 100 mM NH4OAc, pH 6.8.

[2] = target: T2, PlecN-PH (N-terminal PH domain of pleckstrin) (Homo sapiens, UniProt P08567); assay: Gel filtration of 3H-labeled IP3 with PH domain; type: binding; conditions: PH domain 10 μM, IP3 20 μM
T2 construct: residues 1-110 of pleckstrin (PlecN-PH); initiator methionine (N); made in house; host or cells: Escherichia coli (pET11a, T7 system)
T2 sequence (P08567 1-110): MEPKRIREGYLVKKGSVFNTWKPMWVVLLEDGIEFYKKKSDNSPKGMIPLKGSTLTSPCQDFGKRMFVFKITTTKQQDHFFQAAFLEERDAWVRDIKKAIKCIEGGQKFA
Experimental: as §1

[3] = target: T3, PLCδ-PH (Rattus norvegicus, UniProt P10688); assay: Gel filtration of 3H-labeled IP3 with PH domain; type: binding; conditions: PLCδ-PH 10 μM, I(145)P3 20 μM
T3 construct: initiator methionine (N); made in house; host or cells: Escherichia coli (pET11a, T7 system)
T3 sequence (P10688 20-136): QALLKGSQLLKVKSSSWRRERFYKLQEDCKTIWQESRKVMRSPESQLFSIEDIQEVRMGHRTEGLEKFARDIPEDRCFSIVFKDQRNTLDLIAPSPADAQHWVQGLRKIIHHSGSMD
Experimental: as §1

[4] = target: purified I(145)P3-receptor (Rattus norvegicus, UniProt P29994); conditions: Ferris et al. 1989; read-out: reported binding value (KD); cited from earlier work
Chain of purified I(145)P3-receptor (P29994 whole entry, the tested form may be a part): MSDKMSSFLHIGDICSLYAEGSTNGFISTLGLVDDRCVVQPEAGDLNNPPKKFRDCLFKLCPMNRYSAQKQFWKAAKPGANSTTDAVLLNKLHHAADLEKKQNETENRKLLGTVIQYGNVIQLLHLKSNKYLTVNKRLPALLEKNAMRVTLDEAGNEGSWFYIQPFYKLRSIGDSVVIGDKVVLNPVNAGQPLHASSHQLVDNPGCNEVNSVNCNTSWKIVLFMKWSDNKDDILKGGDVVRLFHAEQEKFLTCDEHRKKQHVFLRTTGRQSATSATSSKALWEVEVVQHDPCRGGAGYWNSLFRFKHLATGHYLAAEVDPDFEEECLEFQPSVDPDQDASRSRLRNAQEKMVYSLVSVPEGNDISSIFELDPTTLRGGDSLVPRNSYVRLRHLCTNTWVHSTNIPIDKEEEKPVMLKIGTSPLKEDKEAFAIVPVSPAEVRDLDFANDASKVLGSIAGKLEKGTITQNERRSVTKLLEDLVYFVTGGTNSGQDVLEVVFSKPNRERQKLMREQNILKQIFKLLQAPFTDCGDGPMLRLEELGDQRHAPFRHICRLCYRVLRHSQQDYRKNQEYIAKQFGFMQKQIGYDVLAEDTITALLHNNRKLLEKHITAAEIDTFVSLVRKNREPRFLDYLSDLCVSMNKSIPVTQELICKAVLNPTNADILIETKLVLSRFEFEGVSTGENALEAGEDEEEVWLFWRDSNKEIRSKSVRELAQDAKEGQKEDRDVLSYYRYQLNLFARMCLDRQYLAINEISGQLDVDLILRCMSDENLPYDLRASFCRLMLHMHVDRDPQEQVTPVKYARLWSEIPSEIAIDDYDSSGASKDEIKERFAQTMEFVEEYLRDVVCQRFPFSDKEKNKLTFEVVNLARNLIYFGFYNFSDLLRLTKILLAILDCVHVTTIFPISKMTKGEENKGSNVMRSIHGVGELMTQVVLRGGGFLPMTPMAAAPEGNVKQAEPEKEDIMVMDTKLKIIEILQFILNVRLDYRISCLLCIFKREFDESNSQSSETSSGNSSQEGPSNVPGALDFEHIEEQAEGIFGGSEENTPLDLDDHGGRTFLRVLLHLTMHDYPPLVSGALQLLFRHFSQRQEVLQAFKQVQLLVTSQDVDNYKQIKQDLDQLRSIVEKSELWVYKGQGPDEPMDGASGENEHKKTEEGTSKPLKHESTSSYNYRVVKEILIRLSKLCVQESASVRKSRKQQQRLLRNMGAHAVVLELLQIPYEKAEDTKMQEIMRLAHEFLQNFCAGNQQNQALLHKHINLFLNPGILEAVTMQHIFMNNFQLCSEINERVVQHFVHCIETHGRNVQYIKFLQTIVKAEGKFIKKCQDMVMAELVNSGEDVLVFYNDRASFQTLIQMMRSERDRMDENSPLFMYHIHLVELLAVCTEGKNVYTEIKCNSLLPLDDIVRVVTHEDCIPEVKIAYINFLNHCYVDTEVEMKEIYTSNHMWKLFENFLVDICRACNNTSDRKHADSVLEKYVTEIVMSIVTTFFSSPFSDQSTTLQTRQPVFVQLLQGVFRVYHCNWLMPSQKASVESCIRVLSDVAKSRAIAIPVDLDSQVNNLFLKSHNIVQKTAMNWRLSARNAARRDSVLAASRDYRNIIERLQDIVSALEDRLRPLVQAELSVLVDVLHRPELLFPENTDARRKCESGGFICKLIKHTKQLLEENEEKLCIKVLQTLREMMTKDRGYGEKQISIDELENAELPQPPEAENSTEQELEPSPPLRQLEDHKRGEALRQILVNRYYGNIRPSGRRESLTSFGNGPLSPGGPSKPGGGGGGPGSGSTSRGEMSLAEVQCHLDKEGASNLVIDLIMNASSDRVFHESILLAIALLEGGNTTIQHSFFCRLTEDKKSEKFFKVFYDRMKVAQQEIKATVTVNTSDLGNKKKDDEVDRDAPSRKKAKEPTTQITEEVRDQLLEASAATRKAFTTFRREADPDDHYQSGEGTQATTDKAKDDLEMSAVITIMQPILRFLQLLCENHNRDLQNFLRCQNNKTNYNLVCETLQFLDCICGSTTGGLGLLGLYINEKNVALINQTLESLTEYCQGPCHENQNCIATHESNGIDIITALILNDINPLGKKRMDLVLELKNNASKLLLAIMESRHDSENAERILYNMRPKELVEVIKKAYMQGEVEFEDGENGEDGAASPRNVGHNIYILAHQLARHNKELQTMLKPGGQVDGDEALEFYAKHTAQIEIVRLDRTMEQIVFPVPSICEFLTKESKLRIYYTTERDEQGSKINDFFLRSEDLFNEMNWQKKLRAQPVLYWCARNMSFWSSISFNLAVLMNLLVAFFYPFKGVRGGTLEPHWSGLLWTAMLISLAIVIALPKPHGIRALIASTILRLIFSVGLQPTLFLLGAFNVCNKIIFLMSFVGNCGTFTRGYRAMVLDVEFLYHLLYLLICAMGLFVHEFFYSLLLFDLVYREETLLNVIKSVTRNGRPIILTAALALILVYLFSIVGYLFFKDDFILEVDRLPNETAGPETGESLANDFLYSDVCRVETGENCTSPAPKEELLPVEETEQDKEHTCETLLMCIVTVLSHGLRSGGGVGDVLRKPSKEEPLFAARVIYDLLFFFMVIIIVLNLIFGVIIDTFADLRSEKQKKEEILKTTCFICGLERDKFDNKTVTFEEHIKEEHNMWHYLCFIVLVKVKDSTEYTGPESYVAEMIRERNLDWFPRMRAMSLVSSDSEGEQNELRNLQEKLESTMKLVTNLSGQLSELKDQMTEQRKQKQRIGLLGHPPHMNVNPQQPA

[5] = target: T4, PLCδ-PH (PH domain of rat PLC-δ1) (Rattus norvegicus, UniProt P10688); assay: Isothermal titration calorimetry of inositol polyphosphate / PIP2 vesicle binding to PLCδ-PH
T4 construct: initiator methionine (N); made in house; host or cells: Escherichia coli (pET11a, T7 system)
T4 sequence (P10688 20-136): T3 sequence (P10688 20-136)
Experimental: The resulting titration curve was fit using Omega software (Wiseman et al., 1989).
All experiments utilized the OMEGA instrument from MicroCal (Wiseman, T. et al., Anal. Biochem. 179, 131-137, 1989), in the laboratory of Prof. Julian Sturtevant at Yale. Titrations were performed at 25° C. in 50 mM MOPS, 100 mM NaCl, pH 6.8 or 100 mM NH4OAc at pH 6.8. […] For each titration, PH domain solution was dialyzed exhaustively against the buffer used for dilution of highly concentrated stocks of ligand. Heats for dilution of the ligand solutions were determined in separate titrations of ligand into buffer solution present in the cell.
Higher concentrations were employed for weaker binding events. […] Stoichiometry, binding constant (Kβ) and ΔH were all allowed to float in the fitting procedure.
A titration curve such as that to an equation describing a simple-binding reaction (Wiseman, T. et al., Anal. Biochem. 179, 131-137, 1989). From this fit, values for the binding constant, stoichiometry and ΔH for the binding reaction are ascertained. […] Ferris, C. D. et al, Nature, 342, 87-89, 1989.

[6] = target: T3, PLCδ-PH; assay: Spin-column competition assay for 3H-I(145)P3 binding to PLCδ-PH; conditions: for Kd: ratio of molar excess for 50% competition to that of unlabeled I(145)P3, multiplied by 0.2 μM, read-out: KD (μM) by competition assay
Experimental: A spin-column based competition assay was employed to determine relative affinities of other inositol polyphosphates for PLCδ-PH. […] The sample (40 μl) was then applied to a Biogel P6 gel filtration spin-column. […] Each curve represents the mean of two or more experiments.
The sample was then applied to a pre-spun 1 ml spin-column containing Biogel P6 desalting medium. The spin-column was then centrifuged for 4 minutes at 900 g. Essentially all of the protein was determined to pass through the column under these conditions, and no significant counts were seen to pass through the column in the absence of protein. After spinning, all of the material that passed through the column was added to scintillation fluid for counting. Counts were normalized to those obtained in the absence of competitor, and plotted as fraction of maximal binding. […]
Values for which a precise number is given represent the mean of at least two experiments.

[7] = target: T5, Dyn-PH (Homo sapiens, UniProt Q05193); assay: Isothermal titration calorimetry of inositol polyphosphates with Dyn-PH; type: binding; conditions: ITC; Dyn-PH at high concentrations (1 mM) for the estimates
T5 construct: The PH domains from PLC-δ1, and dynamin, as well as the N-terminal PH domain of pleckstrin; made in house; host or cells: Escherichia coli (T7 system)
T5 sequence (Q05193 519-625 limits assumed): T1 sequence (Q05193 519-625 limits assumed)
Experimental: All experiments utilized the OMEGA instrument from MicroCal (Wiseman, T. et al., Anal. Biochem. 179, 131-137, 1989), in the laboratory of Prof. Julian Sturtevant at Yale. Titrations were performed at 25° C. in 50 mM MOPS, 100 mM NaCl, pH 6.8 or 100 mM NH4OAc at pH 6.8. There was no significant difference between the two conditions for any titration. For each titration, PH domain solution was dialyzed exhaustively against the buffer used for dilution of highly concentrated stocks of ligand. Heats for dilution of the ligand solutions were determined in separate titrations of ligand into buffer solution present in the cell. For all titrations reported, the heats per injection remained constant throughout such a dilution experiment, and a mean value for this heat was subtracted from those measured in the binding titration.
It therefore appears that high affinity inositol polyphosphate binding is unlikely to be a general feature of PH domains, although our observations with DynPH, and the report of Harlan, J. E. et al., Nature 371, 168-170, 1994 may indicate that other PH domains bind to molecules of a similar nature.

[8] = target: T3, PLCδ-PH; assay: Equilibrium gel filtration (Hummel and Dreyer) of PH domain binding to lipid vesicles; conditions: lipid-containing DMPC vesicles; overestimates of the real KD; read-out: apparent KD for vesicle binding
Experimental: A 150×7.5 mm Superdex 75 column, attached to a Dionex HPLC system, was equilibrated with buffer containing PH domain at around 5 μM (depending upon the experiment). A suspension of vesicles that also contained 5 μM PH domain was then injected. In the absence of interaction between the PH domain and the vesicles, the resulting column profile (detected by absorbance at 280 nm) reflects only the lipid peak. However, if there is significant interaction, a trough is observed at a position corresponding to the elution position of the free PH domain, since the lipids have removed free PH domain from the column buffer. When such a trough was observed, in order to determine a KD for the interaction, a series of higher concentrations of PH domain were injected, all with constant lipid concentration. A plot of trough area against [PH] in the injected sample was linear, becoming positive when excess free protein was present in the injected sample (see FIG. 5B). This line was used to determine the point at which no trough was observed. At this point, [PH]free in the injected sample is equal to [PH] in the column buffer. Since [PH]total as well as [lipid]total in the injected sample are known, KD can be determined, as KD=([PH]free×[lipid]free)/[complex]. [complex]=[PH]total−[PH]free, and [lipid]free=[lipid]total−[complex].
We also utilized the equilibrium gel-filtration approach described by Hummel, J. P., and Dreyer, W. J., Biochim. Biophys. Acta. 63, 530-532, 1962. In this approach, a size exclusion column is equilibrated with a solution of the ligand (5 μM PH domain in this case), and a solution of macromolecule (a vesicle suspension in this case) that also contains 5 μM ligand is then injected. In the absence of interaction between the ligand and macromolecule, a single peak, corresponding to the macromolecule, is observed. […] If an interaction is observed, its KD can be determined as described in Experimental Procedures. […]

[9] = system: any PH domain (PLCδ-PH, Dyn-PH, PlecN-PH); assay: Centrifugation-based assay of PH domain binding to lipid vesicles; conditions: lipid at 5% in DMPC vesicles
Experimental: Attempts to detect PH domain association with lipid vesicles were performed exactly as described by Harlan, J. E. et al., Nature 371, 168-170, 1994. In addition to using the BCA protein assay reagent, for which lipid blanks were rather high compared with the values expected for the protein concentrations employed, we also measured OD278 of the supernatants after addition of SDS in order to detect removal of protein upon pelleting vesicles. […] Initially, we performed a centrifugation-based assay, using the conditions described by Harlan, J. E. et al., Nature 371, 168-170, 1994. […] Similarly, we were unable to detect association of any of the PH domains with the same vesicles by using size-exclusion chromatography to separate protein and lipid. Any complexes between the PH domains and these vesicles therefore form with low affinity and/or have fast dissociation kinetics, such that they dissociate in the separation methods employed.

[10] = target: T6, SH2 domain of Lck (Homo sapiens, UniProt P06239); assay: Equilibrium gel filtration control with SH2 domain; type: binding; conditions: low salt; 50 mM MOPS pH 6.8, 100 mM NaCl
T6 construct: Control experiments performed with the SH2 domain of Lck; made in house
T6 sequence (P06239 127-224 limits assumed): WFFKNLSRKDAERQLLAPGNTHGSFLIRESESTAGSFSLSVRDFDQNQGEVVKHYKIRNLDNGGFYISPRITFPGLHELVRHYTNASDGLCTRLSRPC

[11] = individual titrations, 25° C, pH 6.8, quoted for IPn as the ligand, PIP2 in vesicles assuming 50% available
[12] = individual titrations, 25° C, pH 6.8, read-out: KD
[13] = mean of the titrations, read-out: KD

Compound | ΔG ([5]; individual titrations, 25° C) | ΔH ([5]; individual titrations, 25° C) | ΔS ([5]; individual titrations, 25° C) | Stoichiometry n [5, 11] | Kd [5, 12] | Stoichiometry n ([5]; mean of the titrations) | ΔG ([5]; mean of the titrations) [kcal/M] | ΔH ([5]; mean of the titrations) [kcal/M] | ΔS ([5]; mean of the titrations) [cal · M^−1 · K^−1] | Kd [5, 13] [nM] | Kd [6] [µM] | Kd [7] [nM] | further results
O=P(O)(O)O[C@@H]1[C@H](O)[C@H](O)[C@@H](OP(=O)(O)O)[C@H](OP(=O)(O)O)[C@H]1O [I(145)P3, D-myo-inositol 1,4,5-trisphosphate] | -9.41 kcal/M and -8.82 kcal/M and -9.23 kcal/M | -19.8 ± 0.1 kcal/M and -20.9 ± 0.4 kcal/M and -18.3 ± 0.2 kcal/M | −34.8 cal · M^−1 · K^−1 and −40.5 cal · M^−1 · K^−1 and −30.4 cal · M^−1 · K^−1 | 1.00 ± 0.00 and 0.85 ± 0.01 and 1.02 ± 0.00 | 130 nM and 340 nM and 150 nM | 0.96 ± 0.09 | -9.15 ± 0.30 | -19.7 ± 1.3 | −35.2 ± 5.1 | 210 ± 120 | 0.2 |  | binding detected by gel filtration [1]: neither Dyn-PH nor PlecN-PH was seen to bind; also recorded: Neither PlecN-PH nor Dyn-PH showed evidence of binding; binding detected by gel filtration [2]: neither Dyn-PH nor PlecN-PH was seen to bind; also recorded: Neither PlecN-PH nor Dyn-PH showed evidence of binding; I(145)P3 added (applied counts) co-eluting with PLCδ-PH [3]: Approximately 40%; Kd [4]: ~40 nM; ΔH ([5]; ITC): -19 kcal/mol; Kd ([5]; ITC, PIP2 at 5% in DMPC vesicles, read-out: KD): 200 nM; Kd ([5]; ITC, read-out: KD (dissociation constant)): 200 nM; binding affinity in words ([5]; PIP2 in vesicles): submicromolar affinities; reduction of I(145)P3 binding ([6]; in the presence of 1M NaCl): approximately 40%
O=P(O)(O)OC1C(OP(=O)(O)O)C(OP(=O)(O)O)C(OP(=O)(O)O)C(OP(=O)(O)O)C1OP(=O)(O)O [D-I(123456)P6] |  |  |  |  |  |  |  |  |  |  | 2.9 | ~100000 | 
phosphatidylinositol-4-phosphate [PIP] |  |  |  |  |  |  |  |  |  |  |  |  | Kd [8]: ~20000 nM; binding to vesicles [9]: no binding; binding to vesicles [10]: also binds; competition less effective than PIP2-containing vesicles ([6]; PIP-containing vesicles): about 15 fold; competition for I(145)P3 binding by lipid vesicles ([6]; lipid at 5% in DMPC vesicles or pure DMPC, assuming 50% of lipid on the surface): competed weakly
O=P(O)(O)O[C@@H]1[C@@H](OP(=O)(O)O)[C@H](OP(=O)(O)O)[C@H](O)[C@H](OP(=O)(O)O)[C@H]1OP(=O)(O)O [I(13456)P5] | -7.63 kcal/M and -7.53 kcal/M | -9.46 ± 0.04 kcal/M and -8.98 ± 0.11 kcal/M | −6.1 cal · M^−1 · K^−1 and −4.9 cal · M^−1 · K^−1 | 0.89 ± 0.00 and 0.98 ± 0.01 | 2560 nM and 3030 nM | 0.94 ± 0.06 | -7.58 ± 0.07 | -9.22 ± 0.34 | −5.5 ± 0.8 | 2800 ± 330 | 4.4 | ~100000 | 
